# According to patent US8163960B2, “Process for preparing and drying solid rasagiline base” (Teva Pharmaceutical Industries, Ltd., priority 2008, dated 2012):
# Like-named read-outs stand apart in the source and are kept apart here.
# Assays:
# [1] = Protocol: Approximately four (4) grams of rasagiline base was introduced into the sublimation reservoir of a standard Sigma-Aldrich glass sublimation apparatus, (Cat. No. Z221171-1EA) with internal diameter of 3 cm. The apparatus was equipped with vacuum pump, vacuumeter and circulating ice-water bath for cooling of the apparatus' sublimation head. The apparatus was then closed and circulation of coolant at 0 to 1° C. was started. The vacuum was then built to a pressure (“P”) of 2-3 mbar and the reservoir was introduced into thermostatic water bath maintained at temperature (“T”) of 21° C.
# The process was controlled by visual observation of the sublimed solid forming on the sublimation head. After sublimation completed the operation time was recorded, the apparatus was opened and the sublimed solid was removed from the head and weighed.
# The mean sublimation rate was calculated as follows:
# Mean Sublimation Rate Rs1: Rs1=m/M·t [gg^−1hr^−1]
# Mean Sublimation Rate Rs2: Rs2=m/S·t [gm^−2hr^−1]
# Mean Relative Sublimation Rate R: R=m·100/M·t [%/hr] m—mass of sublimed material, g M—mass of starting material, g t=sublimation time, hrs S=sublimation area (apparatus section area), m^2
# [2] = low levels of volatiles by KF and TGA
# [3] = alcohols, acetone, ethyl acetate, toluene, diethyl ether, dioxane, hexane and n-heptane
# [4] = for Description: wet with water, RT, protected from light
# Protocol: Rasagiline Base wet with water produced in Example […] was stored at ambient temperature (RT) in polyethylene bag inside aluminium laminate bag protected from light. The solid was sampled, dried to constant weight under vacuum and analyzed. The sampling and analysis were performed at time zero, than after 2 weeks and 4 weeks from zero time.
# [5] = 48 hrs in air; 7-8° C. or ambient temperature
# physchem = details: 25 °C, pH 11, water
# [6] = Ex. 12, solid, 2-3 mbar, 21 °C, 8.0 hr
# [7] = Ex. 13, solid, 2-3 mbar, 35 °C, 5.33 hr
# [8] = Ex. 14, melt, 2-3 mbar, 60 °C, 4.0 hr
# [9] = Ex. 15, solid, 20 mbar, 21 °C, 8.5 hr
# [10] = Ex. 16, solid, 40 mbar, 21 °C, 8.5 hr
# [11] = Ex. 17, solid, 40 mbar, 35 °C, 5.33 hr
# [12] = Ex. 18, solid, 20 mbar, 35 °C, 5.33 hr
# [13] = Ex. 19, melt, 40 mbar, 60 °C, 5.33 hr
# [14] = Ex. 20, melt, 20 mbar, 60 °C, 5.33 hr
smiles,measurement,setting,value
"C#CCN[C@@H]1CCc2ccccc21 [rasagiline base, R(+)-N-propargyl-1-aminoindan]",Mean relative sublimation rate R,[1]; [6],0.0312 %/hr
same,Mean sublimation rate Rs1,[1]; [6],3.12e-05 g/g/h
same,Mean sublimation rate Rs2,[1]; [6],1.333 g/hr/m^2
same,Sublimed solid fraction,[1]; [6],0.25%
same,−log Rs1,[1]; [6],4.5
same,Mean relative sublimation rate R,[1]; [7],0.116 %/hr
same,Mean sublimation rate Rs1,[1]; [7],0.00117 g/g/h
same,Mean sublimation rate Rs2,[1]; [7],4.978 g/hr/m^2
same,Sublimed solid fraction,[1]; [7],0.62%
same,−log Rs1,[1]; [7],2.93
same,Mean relative sublimation rate R,[1]; [8],5.6 %/hr
same,Mean sublimation rate Rs1,[1]; [8],0.0562 g/g/h
same,Mean sublimation rate Rs2,[1]; [8],236.19 g/hr/m^2
same,Sublimed solid fraction,[1]; [8],22.4%
same,−log Rs1,[1]; [8],1.25
same,Mean relative sublimation rate R,[1]; [9],0.0 %/hr
same,Mean sublimation rate Rs1,[1]; [9],0.0 g/g/h
same,Mean sublimation rate Rs2,[1]; [9],0.0 g/hr/m^2
same,Sublimed solid fraction,[1]; [9],0.0%
same,Mean relative sublimation rate R,[1]; [10],0.0 %/hr
same,Mean sublimation rate Rs1,[1]; [10],0.0 g/g/h
same,Mean sublimation rate Rs2,[1]; [10],0.0 g/hr/m^2
same,Sublimed solid fraction,[1]; [10],0.0%
same,Mean relative sublimation rate R,[1]; [11],0.0375 %/hr
same,Mean sublimation rate Rs1,[1]; [11],0.000375 g/g/h
same,Mean sublimation rate Rs2,[1]; [11],1.593 g/hr/m^2
same,Sublimed solid fraction,[1]; [11],0.20%
same,−log Rs1,[1]; [11],3.42
same,Mean relative sublimation rate R,[1]; [12],0.0506 %/hr
same,Mean sublimation rate Rs1,[1]; [12],0.000515 g/g/h
same,Mean sublimation rate Rs2,[1]; [12],2.192 g/hr/m^2
same,Sublimed solid fraction,[1]; [12],0.27%
same,−log Rs1,[1]; [12],3.29
same,Mean relative sublimation rate R,[1]; [13],0.116 %/hr
same,Mean sublimation rate Rs1,[1]; [13],0.00117 g/g/h
same,Mean sublimation rate Rs2,[1]; [13],4.978 g/hr/m^2
same,Sublimed solid fraction,[1]; [13],0.62%
same,−log Rs1,[1]; [13],2.93
same,Mean relative sublimation rate R,[1]; [14],0.769 %/hr
same,Mean sublimation rate Rs1,[1]; [14],0.00764 g/g/h
same,Mean sublimation rate Rs2,[1]; [14],32.26 g/hr/m^2
same,Sublimed solid fraction,[1]; [14],4.1%
same,−log Rs1,[1]; [14],2.12
same,hygroscopicity,[2],not hygroscopic
same,solubility in organic solvents,[3],freely soluble
same,Assay by HPLC,[4]; 2 weeks,100.5 % on dry basis
same,Enantiomeric purity by HPLC (S-isomer),[4]; 2 weeks,L.T. 0.1%
same,ID by HPLC,[4]; 2 weeks,Conforms
same,IDD by HPLC: 1-Aminoindan,[4]; 2 weeks,L.T. 0.02%
same,IDD by HPLC: 1-Indanone,[4]; 2 weeks,L.T. 0.02%
same,IDD by HPLC: 3-PAIO,[4]; 2 weeks,L.T. 0.02%
same,IDD by HPLC: Any other,[4]; 2 weeks,L.T. 0.02%
same,IDD by HPLC: Total,[4]; 2 weeks,L.T. 0.02%
same,Water content by CKF,[4]; 2 weeks,0.04%
same,Assay by HPLC,[4]; 4 weeks,100.7 % on dry basis
same,Enantiomeric purity by HPLC (S-isomer),[4]; 4 weeks,L.T. 0.1%
same,ID by HPLC,[4]; 4 weeks,Conforms
same,IDD by HPLC: 1-Aminoindan,[4]; 4 weeks,L.T. 0.02%
same,IDD by HPLC: 1-Indanone,[4]; 4 weeks,L.T. 0.02%
same,IDD by HPLC: 3-PAIO,[4]; 4 weeks,L.T. 0.02%
same,IDD by HPLC: Any other,[4]; 4 weeks,L.T. 0.02%
same,IDD by HPLC: Total,[4]; 4 weeks,L.T. 0.02%
same,Water content by CKF,[4]; 4 weeks,0.03%
same,Assay by HPLC,[4]; Start (t = 0),100.1 % on dry basis
same,Enantiomeric purity by HPLC (S-isomer),[4]; Start (t = 0),L.T. 0.1%
same,ID by HPLC,[4]; Start (t = 0),Conforms
same,IDD by HPLC: 1-Aminoindan,[4]; Start (t = 0),L.T. 0.02%
same,IDD by HPLC: 1-Indanone,[4]; Start (t = 0),L.T. 0.02%
same,IDD by HPLC: 3-PAIO,[4]; Start (t = 0),L.T. 0.02%
same,IDD by HPLC: Any other,[4]; Start (t = 0),L.T. 0.02%
same,IDD by HPLC: Total,[4]; Start (t = 0),L.T. 0.02%
same,Water content by CKF,[4]; Start (t = 0),0.04%
same,Time limitation,[4]; Storage temperature +2-+8° C.,One month
same,Description,[4]; 2 weeks,White solid
same,Description,[4]; 4 weeks,White solid
same,Description,[4]; Start (t = 0),White solid
same,effect of holding as ethanol solution on yield and quality of solid product,[5],do not affect the yield and quality of solid product
same,solubility,physchem,5500 µg/mL
